Legend:
[1] = target: T1, human E-Selectin-IgG-chimera (Homo sapiens, UniProt P16581); experiment: Sialyl Lewis^x Tyrosine Sulfate Assay (sLe^x TSA), E-selectin; details: inhibition of binding of selectin chimera to sLe^x-tyrosine sulfate polyacrylamide ligand complex
Method: (§1) Compounds of the present invention are assayed on a molecular level for their ability to inhibit the binding of P-, L-, or E-selectin chimeric molecules to sLe^x and tyrosinesulfate residues linked to a polymeric matrix as a PSGL-1 substitute. IC50-values are determined.
(§2) Microtiter plates are coated overnight in carbonate buffer pH9.6 with goat anti human Fc mAB (10 μg/ml). After washing in assay buffer (25 mM 4-(2-hydroxyethyl)-1-piperazineethanesulfonic acid (HEPES), 150 mM NaCl, 1 mM CaCl2 pH7.4) and blocking (3% bovine serum albumin (BSA) in assay buffer) plates are incubated for 2 h at 37° C. with human P-Selectin-IgG-chimera (0.61 nM respectively 150 ng/mL) or human L-Selectin-IgG-chimera (0.61 nM respectively 89 ng/mL) or human E-Selectin-IgG-chimera (0.61 nM respectively 131 ng/mL). 5 μl of sLe^x-tyrosine sulfate polyacrylamide (1 mg/ml) carrying 15% sLe^x, 10% Tyrosine-sulfate and 5% biotin is complexed with 20 μl Streptavidin-Peroxidase solution (1 mg/ml) and 25 μl assay buffer without CaCl2. For use in the assay, the ligand complex is diluted 1:10000 in assay buffer and further diluted 1:1 with varying amounts of compounds in assay buffer incl. 2% DMSO. This mixture is added to the wells precoated with E- or P-selectin. After incubation for 2 h at 37° C., wells are washed for six times with in assay buffer incl. 0.005% Polyoxyethylenesorbitan monolaurate (TWEEN 20), developed for 10-15 min with 20 μl 3,3′,5,5′-tetramethylbenzidine (TMB)/H202 substrate solution and stopped with 20 μl 1 M H2SO4. Bound sLe^x-Tyrosine sulfate ligand complex is determined by measuring optical density at 450 nm vs. 620 nm in a Fusion alpha-FP reader (sold from Packard Bioscience, Dreieich, Germany).

[2] = target: T2, human P-Selectin-IgG-chimera (Homo sapiens, UniProt P16109); experiment: Sialyl Lewis^x Tyrosine Sulfate Assay (sLe^x TSA), P-selectin; details: inhibition of binding of selectin chimera to sLe^x-tyrosine sulfate polyacrylamide ligand complex
T2 sequence (P16109 with tags, fused parts or gaps limits assumed): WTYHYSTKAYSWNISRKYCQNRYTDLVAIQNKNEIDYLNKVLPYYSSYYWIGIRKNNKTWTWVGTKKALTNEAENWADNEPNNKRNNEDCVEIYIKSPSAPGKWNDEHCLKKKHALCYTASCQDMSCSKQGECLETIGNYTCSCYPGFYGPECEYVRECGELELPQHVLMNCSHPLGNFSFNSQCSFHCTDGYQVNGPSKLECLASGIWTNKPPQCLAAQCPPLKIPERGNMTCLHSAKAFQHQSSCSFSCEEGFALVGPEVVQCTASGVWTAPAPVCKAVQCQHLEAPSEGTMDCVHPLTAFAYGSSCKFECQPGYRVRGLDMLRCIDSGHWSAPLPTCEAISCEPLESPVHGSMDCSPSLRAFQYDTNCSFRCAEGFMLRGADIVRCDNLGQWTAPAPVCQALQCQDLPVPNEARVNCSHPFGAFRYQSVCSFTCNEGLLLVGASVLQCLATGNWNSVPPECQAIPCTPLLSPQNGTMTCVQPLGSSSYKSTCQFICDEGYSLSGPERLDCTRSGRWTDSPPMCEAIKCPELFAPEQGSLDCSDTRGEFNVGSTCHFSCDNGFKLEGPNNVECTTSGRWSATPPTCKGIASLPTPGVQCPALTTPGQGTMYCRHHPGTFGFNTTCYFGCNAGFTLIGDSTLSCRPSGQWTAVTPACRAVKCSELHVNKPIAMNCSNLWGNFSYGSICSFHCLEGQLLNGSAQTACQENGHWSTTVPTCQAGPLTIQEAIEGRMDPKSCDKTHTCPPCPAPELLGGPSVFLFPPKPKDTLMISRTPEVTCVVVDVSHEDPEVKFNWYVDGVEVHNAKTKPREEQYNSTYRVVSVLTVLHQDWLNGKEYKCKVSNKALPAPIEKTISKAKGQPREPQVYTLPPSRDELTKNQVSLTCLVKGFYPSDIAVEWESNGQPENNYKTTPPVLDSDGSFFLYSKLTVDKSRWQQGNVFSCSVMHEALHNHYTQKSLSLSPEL
Method: as §1, §2

[3] = target: human L-Selectin-IgG-chimera (Homo sapiens, UniProt P14151); experiment: Sialyl Lewis^x Tyrosine Sulfate Assay (sLe^x TSA), L-selectin; details: inhibition of binding of selectin chimera to sLe^x-tyrosine sulfate polyacrylamide ligand complex
Chain of human L-Selectin-IgG-chimera (P14151 with tags, fused parts or gaps limits assumed): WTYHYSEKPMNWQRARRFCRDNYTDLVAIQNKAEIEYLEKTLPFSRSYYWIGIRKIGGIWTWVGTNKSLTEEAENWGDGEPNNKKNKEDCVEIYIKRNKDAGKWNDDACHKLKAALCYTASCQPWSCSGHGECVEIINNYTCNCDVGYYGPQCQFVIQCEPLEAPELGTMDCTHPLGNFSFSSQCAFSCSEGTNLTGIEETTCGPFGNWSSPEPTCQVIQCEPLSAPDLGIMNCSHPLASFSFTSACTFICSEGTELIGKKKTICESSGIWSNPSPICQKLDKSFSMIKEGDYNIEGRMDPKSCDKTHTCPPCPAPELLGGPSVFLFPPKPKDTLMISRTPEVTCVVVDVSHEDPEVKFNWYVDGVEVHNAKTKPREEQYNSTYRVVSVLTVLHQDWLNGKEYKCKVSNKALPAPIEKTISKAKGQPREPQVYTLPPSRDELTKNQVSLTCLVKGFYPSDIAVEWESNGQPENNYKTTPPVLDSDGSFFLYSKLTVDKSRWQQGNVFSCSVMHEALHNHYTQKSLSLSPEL
Method: as §1, §2

[4] = target: T1, human E-Selectin-IgG-chimera; experiment: Flow chamber assay / cell adhesion and rolling under flow conditions, E-selectin; format: cell-based; details: 125 μM compound; HL-60 cells; flow shear 1 dyne/cm^2; attached cells after 5 minutes continuous flow
Method: (§3) To assess the capability of compounds to inhibit cell binding under dynamic conditions resembling the flow in a blood vessel, flow chamber assays addressing/testing binding of HL-60 cells/various cell lines to P-selectin, L-selectin and E-selectin chimeric molecules are performed.
(§4) Cell attachment under flow conditions are determined using a parallel flow chamber system. A 35 mm polystyrene culture dish is coated for 1 hour at room temperature with coating buffer (50 mM tris-(hydroxymethyl)aminomethane buffer (Tris), 150 mM NaCl, 2 mM CaCl2; pH 7.4) containing human E- or P-selectin-IgG chimera at concentrations of 2.5 μg/ml or 10 μg/ml, respectively. After removal of the coating solution non specific binding sites are blocked for an additional hour with 1% BSA in coating buffer at room temperature. After washing with assay buffer (“Roswell Park Memorial Institute 1640” (RPMI 1640)+10 mM HEPES) the dish is fitted into a parallel plate laminar flow chamber (sold from Glycotech, Rockville, Md.) and mounted on an inverted phase-contrast microscope (sold from Olympus, Hamburg, Germany) equipped with a CCD camera (JVC) that is connected to a PC. Employing a peristaltic pump (sold from Ismatec, Wertheim-Mondfeld, Germany) the re-circulating system is equilibrated with assay buffer containing 125 μM compound or vehicle control (DMSO). Cells (1 million/ml) are added to the chamber and allowed to distribute for 2 minutes at a high flow rate. The flow rate is then decreased resulting in a calculated flow shear of 1 dyne/cm^2. Video sequences of 10 low power fields are digitally recorded after 5 minutes continuous flow. The percentage of modulation is calculated from the mean number of cells per field that attached to the coated dish surface in the presence versus absence of compound of […].

[5] = target: T2, human P-Selectin-IgG-chimera; experiment: Flow chamber assay / cell adhesion and rolling under flow conditions, P-selectin; format: cell-based; details: 125 μM compound; HL-60 cells; flow shear 1 dyne/cm^2; attached cells after 5 minutes continuous flow
Method: as §3, §4

T1 sequence (P16581 with tags, fused parts or gaps limits assumed): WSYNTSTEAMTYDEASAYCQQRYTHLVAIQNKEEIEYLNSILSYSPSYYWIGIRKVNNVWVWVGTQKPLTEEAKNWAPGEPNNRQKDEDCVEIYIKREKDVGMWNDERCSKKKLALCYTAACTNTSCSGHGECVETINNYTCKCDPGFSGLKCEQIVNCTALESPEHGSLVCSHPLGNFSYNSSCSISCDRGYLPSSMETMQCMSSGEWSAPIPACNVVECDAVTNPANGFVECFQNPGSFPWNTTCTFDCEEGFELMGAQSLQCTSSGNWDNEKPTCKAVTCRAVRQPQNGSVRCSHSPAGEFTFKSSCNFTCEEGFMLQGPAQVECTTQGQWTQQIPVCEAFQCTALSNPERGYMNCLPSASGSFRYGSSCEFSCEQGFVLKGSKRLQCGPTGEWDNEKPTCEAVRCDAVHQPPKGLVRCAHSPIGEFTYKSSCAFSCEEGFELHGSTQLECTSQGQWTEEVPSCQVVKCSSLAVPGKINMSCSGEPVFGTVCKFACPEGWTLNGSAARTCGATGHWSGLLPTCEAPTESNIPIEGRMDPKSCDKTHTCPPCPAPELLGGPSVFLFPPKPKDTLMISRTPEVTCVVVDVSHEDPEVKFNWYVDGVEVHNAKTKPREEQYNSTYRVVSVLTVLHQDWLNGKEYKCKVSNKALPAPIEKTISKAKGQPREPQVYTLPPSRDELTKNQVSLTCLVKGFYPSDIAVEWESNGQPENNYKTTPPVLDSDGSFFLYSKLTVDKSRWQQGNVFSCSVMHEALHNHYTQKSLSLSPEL

SMILES	IC50 [1] [µM]	IC50 [2] [µM]	IC50 [3] [µM]	E-Selectin normalized ratio of %-inhibition of compound divided by %-inhibition of bimosiamose [4] [Ratio]	P-Selectin normalized ratio of %-inhibition of compound divided by %-inhibition of bimosiamose [5] [Ratio]
COc1ccc(-c2cccc(C(=O)Nc3ccccc3-c3ccc(CC(=O)O)s3)c2)c(OC)c1OC [Compound 61]	> 500	186	385		
COc1cc(CCC(=O)Nc2cccc(N)c2)cc(OC)c1OC [Compound 60]	18.2	15	12.8		
COc1ccc(-c2cc(C(=O)Nc3ccccc3-c3ccc(CC(=O)O)s3)cc([N+](=O)[O-])c2)c(OC)c1OC [Compound 63]	> 500	28.5	76.1	1.46	1.06
COc1ccc(-c2cccc(C(=O)Nc3ccccc3-c3ccc(C(=O)O)s3)c2)c(OC)c1OC [Compound 64]	> 500	107	383	1.27	1.01
O=C(O)Cc1cccc(-c2cc(CCCCCCc3ccc(O[C@H]4O[C@H](CO)[C@@H](O)[C@H](O)[C@@H]4O)c(-c4cccc(CC(=O)O)c4)c3)ccc2O[C@H]2O[C@H](CO)[C@@H](O)[C@H](O)[C@@H]2O)c1 [Bimosiamose, bimosiamose, reference compound]			> 500		
COc1ccc(-c2cccc(C(=O)Nc3ccccc3-c3ccc(Cc4nnn[nH]4)s3)c2)c(OC)c1OC [Compound 87, 2′,3′,4′-Trimethoxy-biphenyl-3-carboxylic acid {2-[5-(1H-tetrazol-5-ylmethyl)-thiophen-2-yl]-phenyl}-amide]		32.6	59.5	1.23	2.62
CCOC(=O)c1cc(-c2ccc(NC(=O)Cc3ccc(OC)c(OC)c3OC)cc2)oc1C [Compound 62]	74.7	46.4	45.3		
